One data set deals with Jurkat cells. In words: Calcein-AM fluorescence assay of intracellular iron binding. The class given is cell-based, human. To be noted: suspended Jurkat cells loaded with calcein; SIH added after (TC1-S)2. An excerpt: FIG. 5 is a graph showing displacement of paramagnetic ions and restoration of calcein fluorescence by addition of chelators (TC1-S)2 and SIH at the indicated times and final concentrations in suspended Jurkat cell cultures. Fluorescence intensity at 517 nm (excitation, 488 nm) is plotted as the difference from the initial values before any addition. DMSO concentration was kept constant in all solutions.
Intracellular iron binding was first examined using calcein-AM, the acetoxymethyl ester of a fluorescein-based sensor of metal ions in biological specimens. Trapped intracellularly upon hydrolysis of the ester groups by esterases, calcein coordinates iron and possibly other (far less abundant) cations (e.g., Cu(II) and Zn(II)). Calcein stabilizes ferric iron coordination and this paramagnetic ion quenches considerably its fluorescence emission.

The test system of data set [1] is MDA-MB-231 (breast adenocarcinoma) cells. Put plainly: MTT assay of cell viability, MDA-MB-231. To be noted: in the presence of human holotransferrin. The class given is cell-based. Here is the method:
(§1) The present inventors have also investigated the antiproliferative activity of series of pro-chelators and chelators of the invention towards human cell lines. MTT assays of cell viability (Table 1) were performed on two cancer cell lines, neuroepithelioma SK-N-MC and breast adenocarcinoma MDA-MB-231, which are well studied in the context of iron deprivation. The established antiproliferative iron chelator DFO was used as a control and its toxicity profiles compared well to literature ones for these cell lines. Viability measurements were conducted in the presence of human holotransferrin in order to load intracellular iron pools and assess antiproliferative activity related to intracellular iron deprivation.
(§2) MDA-MB-231 (ATCC® HTB-26™) breast adenocarcinoma cells and SK-N-MC (ATCC® HTB-10™) neuroepithelioma cells were cultured under a 5% CO2 humidified atmosphere at 37° C. in Eagle's Minimal Essential Medium (EMEM) supplemented with 10% fetal bovine serum (FBS), glutamine (2 mM), sodium pyruvate (1 mM), sodium bicarbonate ([…]), penicillin (100 units/mL), streptomycin (100 μg/mL) and 1.25 μM (1 mg/10 mL) human holo-transferrin (Aldrich) prior to use. Jurkat T lymphocytes (ATCC® T1B-152™) were cultured at 37° C. under a 5% CO2 humidified atmosphere in RPMI 1640 media supplemented with 10% FBS, penicillin (5 mg/ml) and streptomycin (1 mg/ml), and maintained at a density lower than 2.0×10^6 cells/mL.
Background: Tetrazolium assays rely on reduction of a dye to a coloured formazan, in cell work by metabolically active cells.

A short description of data set [2]: Reduction by GSH monitored by UV-visible absorption spectroscopy. The class given is physicochemical. To be noted: GSH 11.0 mM. The method, then: FIG. 2 is a graph showing reduction of (TC1-S)2 (9.0 μM) by GSH (11.0 mM) as monitored by UV-visible absorption spectroscopy in buffered aqueous solution (50 mM PIPES, pH 7.4) at 25° C. Spectral changes during the reduction of (TC1-S)2 (Line 2, […]) to TC1-SH (Line 1) by GSH (11.0 mM). The reaction goes to substantial completion within 2 h.
The reduction of (TC1-S)2 can be monitored in vitro by UV-visible absorption spectroscopy. FIG. 2.

Data set [3] has as its system ribonucleotide reductase (RNR) tyrosyl radical in Jurkat cells. In words: Whole-cell EPR of the tyrosyl radical of ribonucleotide reductase. The class given is cell-based, human. To be noted: 50 μM. The method, then:
FIG. […] Experimental conditions: microwave frequency, 9.338 GHz; microwave power, 2 mW; magnetic field modulation amplitude, 0.5 mT; temperature, 30° K.
EPR data were also used to examine the effect of chelation system on the tyrosyl radical that characterizes the active site of ribonucleotide reductase (RNR), the iron-dependent enzyme that is believed to be essential in DNA biosynthesis.

For data set [4], the system named is MDA-MB-231 cells. In words: Intracellular ROS generation, oxidation of DCFH2 to DCF. As to conditions: 30 min incubation, compared to H2O2 (100 μM) positive control. The class given is cell-based, human. Here is the method:
FIG. 8 is a bar graph showing intracellular generation of ROS monitored through the oxidation of DCFH2 to fluorescent DCF (ex: 485 nm, em: 528 nm). MDA-MB-231 cells were treated with DCFH2-DA (10 μM, 10 min), washed and then incubated with test compounds (concentrations as shown, 30 min). H2O2 (100 μM) was employed as a positive control. Measurements were conducted in triplicate and reported as average±standard deviation.
The in-vitro results above were confirmed in cultures of MBA-MD-231 breast carcinoma cells using a fluorescence-based assay of ROS generation. Added to the growth media, cell-permeable dihydrodichlorofluorescein diacetate (DCFH2-DA) was hydrolized intracellularly to trap the probe dihydrodichlorofluorescein (DCFH2), which was oxidized by several ROS to give the bright fluorescent product dichlorofluorescein. […] FIG. 8.

The nature of data set [5]: Cyclic voltammetry in DMF. The class given is physicochemical. As to conditions: glassy carbon electrode. The text has this: FIG. 10 is a cyclic voltammograms of disulfides 1a-c at a glassy carbon electrode in DMF with (n-Bu4N)(PF6) as supporting electrolyte. Data collected at a 100 mVS^−1 sweep rate using Ag/AgNO3 reference electrode and a platinum wire auxiliary electrode.
The reduction of disulfides 1a-c was investigated by electrochemical methods in N,N-dimethylformamide. FIG. 10. The collected cyclic voltammograms present irreversible cathodic peaks that are characteristic of aromatic disulfide reduction and correspond to the two-electron reductive process leading to formation of two thiolate ions. Consistent with reported electronic effects of substituents in aromatic disulfides, peak reduction potentials of compounds 1a-c vary considerably with the substitution on the thiosemicarbazone unit. […] These experiments established that electronic effects of the partially conjugated chelating units modulate the thermodynamic drive to reduction of disulfide constructs. Similarly, it is expected that an electron withdrawing group substituent on the phenyl ring itself (e.g., R^3 and/or R^4 in Formula I) will also result in lower reduction potential. As used herein, the term “electron withdrawing group” refers to any substituent that draws electron density away from a given center (e.g., disulfide or thiol group in compounds 1a-c and 2a-c, respectively). […]

For data set [6], the system named is MRC-5 (normal lung fibroblast) cells. Put plainly: MTT assay of cell viability, MRC-5. To be noted: for IC50: MTT assay, 72 h exposure; for toxicity in normal lung fibroblasts (comparison): normal cells. The class given is cell-based, human. Here is the method:
as §1
Because normal cells divide at a lower rate, MTT assays were performed after exposures of 48 h and also 72 h (Table 1).

Data set [7] concerns SK-N-MC (neuroepithelioma) cells. Put plainly: MTT assay of cell viability, SK-N-MC. The class given is cell-based. To be noted: 48 h exposure, in the presence of human holotransferrin. Here is the method: as §1, §2
The test system of data set [8] is MDA-MB-231 cells. In words: Effect of NAC supplementation on toxicity (viability assay). The class given is cell-based, human. As to conditions: 10.0 μM compound, 48 h, after 6 h NAC. The method, then: FIG. 4 is a bar graph showing the effect of N-acetyl cystein (NAC) supplementation on the toxicity of DFO (10 μM) and (TC1-S)2 (10 μM). MDA-MB-231 cells were incubated with NAC for 6 h before treatment with DFO (10.0 μM) or (TC1-S)2 (10.0 μM) for 48 h. Percent viability is expressed relative to control treated with DMSO and averaged over three experiments±percent standard deviation.
The control of reducing conditions employed in vitro in the experiments summarized above cannot be achieved in cell culture; nevertheless, the intracellular concentration of GSH can be increased by supplementing with N-acetyl cysteine (NAC), a precursor required for GSH biosynthesis. […] FIG. 4.

Data set [9] can be described thus: Equilibration in GSH/GSSG redox buffer solutions at different half-cell potentials. As to conditions: half-cell potentials of −220 mV or lower (vs SHE); 12.5 μM disulfide, 11-13 mM total glutathione, 2 h. The class given is physicochemical. Here is the method:
FIG. 3 is a graph showing the fraction of reduced chelator TC1-SH obtained from UV-visible absorption data in GSH/GSSG redox buffer solutions at different half-cell potentials. Total ([GSH]+[GSSG]) was maintained at 11-13 mM, whereas initial [(TC1-S)2] was 12.5 μM. Samples were allowed to equilibrate for 2 h. Data points are plotted as average of triplicate measurements±standard deviation.
In order to estimate the speciation of the prochelator/chelator system in solutions containing glutathione levels reflecting biologically relevant conditions, disulfide (TC1-S)2 was allowed to equilibrate in a series of redox buffer mixtures. The half-cell potentials for the solutions were calculated based on the concentrations of GSH and GSSG and they were selected to include values from those typically associated to proliferating cells (−240 mV vs SHE) to those found in necrotic cells (−180 mV). […] FIG. 3. As such, in this model of intracellular conditions containing micromolar chelation system and millimolar glutathione buffer, the chelation system after equilibration was found prevalently in its reduced iron-binding form at glutathione half-cell potentials that are characteristic of proliferating and malignant cells.

For data set [10] the following is noted: clinical trials terminated; cited from earlier work.
Data set [11] is described as follows: Iron coordination with Fe(BF4)2.6H2O. To be noted: organic solvents and buffered aqueous solutions. The class given is binding. An excerpt:
Consistent with the modest coordinating ability of disulfide linkages in general and the conformational restraints they impose on the joint thiosemicarbazone units in this case, disulfides 1a-c behave as masked pro-chelators of low iron coordinating ability.
Conversely, thiols 2a-c react readily with Fe(BF4)2.6H2O in organic solvents and in buffered aqueous solutions. From reactions in THF, iron complexes 3a-c were isolated by crystallization and characterized by high-resolution mass spectrometry and elemental analysis. Complexes 3a (FIG. 11) and 3b were also characterized by single crystal X-ray diffraction analysis.

We go through six compounds from patent US9486423B2, “Redox-directed chelators targeting intracellular metal ions” (THE ARIZONA BOARD OF REGENTS ON BEHALF OF THE UNIVERSITY OF …, priority 2014, dated 2016).

For orientation: IC50 means the concentration at which inhibition is half-maximal. With `S=C(NN=Cc1ccccc1SSc1ccccc1C=NNC(=S)Nc1ccccc1)Nc1ccccc1` [Compound 1c], the calcein fluorescence intensity result in the data set with Jurkat cells is given as “concentration-dependent increase in fluorescence intensity”. In addition, the IC50 in data set [1] (48 h exposure) was 4.59 ± 0.06 µM; in data set [1] (48 h exposure, listed as (TC1-S)2) it was 4.6 µM; in [6], 30.91 ± 0.02 µM; in [7], 6.81 ± 0.17 µM. Moreover, the “time to substantial completion of reduction to TC1-SH” value in [2] (9.0 μM disulfide, 50 mM PIPES, pH 7.4, 25° C.) is reported as not above 2 h. Moreover, in data set [2] (neutral buffered aqueous solution, 9.0 μM), the “conversion of disulfide to thiol” value was “converted substantially quantitatively”. In [3] (1 h), the “RNR tyrosyl radical EPR signal” value was “decrease in RNR signal amplitude”. Also, the “intracellular generation of ROS (DCF fluorescence)” value in the data set on MDA-MB-231 cells [4] was “did not elicit significant turn-on response”. For the same compound, the “ease of disulfide reduction (peak reduction potential)” value in data set [5] is “easier to reduce compared to analogues 1a and 1b”. Further, the “toxicity in normal lung fibroblasts (comparison)” value in [6] is “significantly less toxic than its corresponding thiol 2c”; in [6] (listed as (TC1-S)2), “significantly less toxic than DFO”. The “effect of increasing NAC on toxicity” value in the data set with MDA-MB-231 cells [8] is listed as “more susceptible”. Besides, the “estimated equilibrium percentage of thiol” value in data set [9] is listed as “greater than 80%”.

For the compound `NC(=S)NN=Cc1ccccc1SSc1ccccc1C=NNC(N)=S` [Compound 1a], the IC50 in [1] (48 h exposure) turned out to be 22.07 ± 0.04 µM; in data set [7], 8.91 ± 0.09 µM.

For `CC(=O)N(O)CCCCCNC(=O)CCC(=O)N(O)CCCCCNC(=O)CCC(=O)N(O)CCCCCN` [DFO, desferrioxamine, reference compound], the IC50 was 17 µM in data set [1] (Homo sapiens, MDA-MB-231, 48 h, 48 h exposure); 17.05 ± 0.05 µM in data set [1] (MDA-MB-231, 48 h exposure); 8.04 ± 0.03 µM in data set [6] (Homo sapiens, MRC5); 10.02 ± 0.06 µM in data set [7] (SK-N-MC). For the same compound, the “RNR tyrosyl radical EPR signal” value in [3] (3 h) is reported as “loss of signal”. Further, the “effect of increasing NAC on toxicity” value in the data set with MDA-MB-231 cells [8] is “not affected significantly”.

On to `NC(=S)NN=Cc1ncccc1N` [Compound 3-AP, 3-Aminopyridine-2-carboxaldehyde thiosemicarbazone], for which the adverse side effects result in [10] is recorded as “methemoglobinemia”.

Regarding `S=C(NN=Cc1ccccc1S)Nc1ccccc1` [Compound 2c], the concentration for half-maximal inhibition (IC50) in data set [1] (48 h exposure) came out at 15.01 ± 0.05 µM; in data set [6], 15.08 ± 0.02 µM; in data set [7], 5.19 ± 0.17 µM. In addition, the “stability of thiol in solution” value in [2] (neutral buffered aqueous solution) is given as “over 6 h”. Besides, the “intracellular generation of ROS (DCF fluorescence)” value with MDA-MB-231 cells [4] is reported as “did not elicit significant turn-on response”. Moreover, the iron coordination entry in data set [11] is listed as “readily coordinates Fe(II) ions”.

In the case of `O=C(NN=Cc1ccccc1O)c1ccncc1` [SIH, salicylaldehyde isonicotinoyl hydrazone, reference compound], the calcein fluorescence intensity entry with Jurkat cells is given as “further increased fluorescence intensity”.
